Reference: US20240238246A1, “METHODS FOR PREVENTING OR SLOWING THE PROGRESSION OF COGNITIVE DECLINE OR IMPAIRMENT IN SUBJECTS” (AGENEBIO, INC., priority 2023, published 2024)

What was measured:
[1] = tested on: subjects with MCI due to Alzheimer's disease; experiment: Phase IIb placebo-controlled 78-week study, Clinical Dementia Rating-Sum of Boxes (CDR-SB); assay type: in vivo, human
Experimental: (§1) This example describes a phase IIb multicenter, randomized, double-blind, placebo-controlled study evaluating the efficacy and safety of a low-dose levetiracetam, 220 mg, extended-release tablet on slowing progression of MCI due to Alzheimer's disease (prodromal Alzheimer's disease), the results being evaluated using the well-recognized and accepted Clinical Dementia Rating-Sum of Boxes (CDR-SB) scores.
(§2) Subjects for this study were between 55 and 85 years old (inclusive) in good general health, willing and able to consent and to participate for the duration of the study, having an eighth-grade education or good work history sufficient to exclude mental retardation, having visual and auditory acuity adequate for neuropsychological testing, and having proficient fluency of the native local language to participate in all the neuropsychological test assessments. The clinical assessments of 63 participants were used for the analyses.
Blood samples were taken from each subject to determine APOE4 carrier status. Genomic DNA was prepared from the blood samples according to standard procedures. Quality of the genomic DNA samples were quantified using Optical Density and DNA purity was calculated. Using extracted genomic DNA as a template, locus specific DNA fragments were amplified by polymerase chain reaction (PCR). Purified PCR products were used as templates for sequencing reactions. According to the chain terminating methodology of Sanger et al (Sanger F, Nicklen S, Coulson A R. DNA sequencing with chain-terminating inhibitors. Proc Natl Acad Sci USA. 1977 December; 74(12):5463-7), analysis of DNA sequence was based on the termination of a growing DNA strand due to incorporation of a dye labeled ddNTP by the DNA polymerase. The resulting dye-labeled product was detected using an automated sequencing platform. Data was analyzed using the software SEQPATIENT from JSI-medical Systems®.
(§3) The study included up to a 5-week screening period consisting of 3 visits and a 78-week treatment period consisting of 10 visits (1 baseline visit, 3 telephone call visits, and 6 clinic visits). The primary endpoint of the study was the analysis of the change in CDR-SB score from baseline to 78 weeks. Secondary endpoints included the analysis of the change in Functional Activities Questionnaire (FAQ) score from baseline to 78 weeks. Subjects received a low-dose levetiracetam, 220 mg, extended-release tablet or placebo in the morning in identically appearing extended release, one unit oral dosage forms.
CDR-SB testing was performed using standard methods. Briefly, subjects were tested using the following six categories or “boxes”: Memory, Orientation, Judgment and Problem Solving, Community Affairs, Home and Hobbies, and Personal Care. CDR-SB scores were calculated by adding the box scores. The total score ranges from 0 to 18 with a higher scores indicating more impairment). Absolute values and changes from baseline in CDR-SB were summarized using descriptive statistics and presented by APOE4 non-carrier status. Table 3 summarizes the statistical analysis wherein each cell contains a point estimate followed by a 95% Confidence Interval (CI).

[2] = tested on: subjects with MCI due to Alzheimer's disease; experiment: Phase IIb placebo-controlled 78-week study, Functional Activities Questionnaire (FAQ) score; assay type: in vivo, human
Experimental: as §1, §2, §3
FAQ scores were obtained to measure the functional ability of individuals over time. Briefly, FAQ measures instrumental activities of daily life, such as preparing meals and balancing a check book as these functional changes are found earlier in the dementia process compared to more basic activities. The Questionnaire comprises 10 questions which are answered using a 0-3 scoring system for each question with 0 being normal and 3 being dependent on someone else to complete the task. […]

[3] = tested on: entorhinal cortex (ERC) and Brodmann area 35 (BA35) volume in APOE-4 non-carriers; experiment: Volumetric MRI of medial temporal lobe subregions (ASHS-T1 segmentation) in the phase IIb study; assay type: in vivo, human; conditions: APOE-4 non-carriers (n=26), baseline to week 78
From the text: Brain regions of interest were selected prior to the trial apriori based on the location of post-mortem tau accumulation in the early stage of AD (Braak et al., Acta Neuropathologica, 112(4): 389-404 (2006); Braak & Braak, Acta Neuropathologica, 80(5): 479-486 (1990)) and robust atrophy in entorhinal cortex volume in the AD. For this purpose, the Automated Segmentation of Hippocampal Subfields (ASHS) software (Xie et al., Hum Brain Mapp. 40:3431-3451 (2019)) was used. Regions provided by this software include the left and right entorhinal cortex (ERC), Brodmann area 35 (BA35), which largely overlaps with TEC (Braak et al., Acta Neuropathologica, 112(4): 389-404 (2006); Braak & Braak, Acta Neuropathologica, 80(5): 479-486 (1990))) and includes a portion of the perirhinal cortex and BA36, which predominantly encompasses the perirhinal cortex (Xie et al., 2019). High-resolution T1-weighted MRI images of the subjects' brain were collected at baseline and 78 weeks using an MRI scanner. Automatic segmentation was performed using the T1-weighted MRI images using the ASHS-T1 open-source software and see, also Xie et al., Hum Brain Mapp. 40:3431-3451 (2019). […] Volumetric and thickness measurements of the ERC and BA35 were extracted for each subject. […]

[4] = cited from earlier work
[5] = APOE-4 non-carrier subgroup (n=26)

## CC[C@@H](C(N)=O)N1CCCC1=O [levetiracetam, (2S)-2-(2-oxopyrrolidin-1-yl)butanamide]
[1]; APOE4 non-carriers (n = 63), 78 weeks
  CDR-SB Treatment Effect (Difference) versus placebo (point estimate, 95% CI): −0.56 (CI: −1.90, 0.47)
[1]; APOE4 non-carriers (n = 63), baseline to 78 weeks, 220 mg extended-release tablet
  CDR-SB change score (point estimate, 95% CI): 0.96 (CI: 0.08, 2.01)
[1]; APOE-4 carrier subgroup (n=54)
  Mean CDR-SB change score at Week 78: 0.95
[1]; APOE-4 carrier subgroup, Week 78, versus placebo
  Estimated average treatment effect on CDR-SB change score: −0.10
[1]; [5]
  Mean CDR-SB change from baseline at Week 78: 0.68
[1]; APOE-4 non-carrier subgroup, Week 78, versus placebo
  Estimated average treatment effect on CDR-SB change score: −0.45
[1]; entire study population
  Mean CDR-SB change score at Week 78: 1.12
[1]; entire study population, Week 78, versus placebo (p=0.71)
  Estimated average treatment effect on CDR-SB change score: −0.10
[2]; APOE-4 carrier subgroup (n=54)
  Mean FAQ total score change from baseline to week 78: 5
[2]; [5]
  Mean FAQ total score change from baseline to week 78: 1.8
[2]; entire study population
  Estimated mean FAQ score from baseline at 78 weeks (95% CI): 3.82 (95% CI: 2.10, 5.17)
[3]; p=0.048 vs placebo
  Left ERC mean volume change: −1.878%
[3]; p=0.094 vs placebo
  Right BA35 mean volume change: −0.789%
[4]; following oral administration
  Time of peak plasma concentrations: about 1 hour
[4]; in vivo
  Plasma half-life: approximately 7±1 hour
[4]; multiple twice-daily dosing
  Time to achieve steady state: 2 days
[4]; oral administration
  Absorption after oral administration: rapidly and almost completely absorbed
  Effect of food on bioavailability: not affected by food
